Reference: US8192962B2, “Processes for detecting toxic substances” (Daikin Industries, Ltd., priority 2001, dated 2012)

System: Genes belonging to other category
Test: DNA chip mRNA expression in yeast, genes belonging to other category (Table 9)
Assay type: cell-based, Saccharomyces cerevisiae S288C
Procedure, shortened: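 Measured as treated-to-untreated fluorescence ratio on a full-genome yeast DNA chip. Cells (S288C, YPD, 25° C.) were exposed in log phase for two hours to one chemical, dosed to curb growth without killing.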

## [Cl][Pb][Cl] [(4), PbCl2]
Yeast gene YAR010C
  The level of expressed mRNA in the presence of chemical substance/The level of expressed mRNA in the absence of chemical substance: 0.8
Yeast gene YBL005W-A
  The level of expressed mRNA in the presence of chemical substance/The level of expressed mRNA in the absence of chemical substance: 0.9
Yeast gene YBL041W
  The level of expressed mRNA in the presence of chemical substance/The level of expressed mRNA in the absence of chemical substance: 1.0
Yeast gene YBL043W
  The level of expressed mRNA in the presence of chemical substance/The level of expressed mRNA in the absence of chemical substance: 1.3
Yeast gene YBL078C
  The level of expressed mRNA in the presence of chemical substance/The level of expressed mRNA in the absence of chemical substance: 2.6
Yeast gene YBR214W
  The level of expressed mRNA in the presence of chemical substance/The level of expressed mRNA in the absence of chemical substance: 2.0
Yeast gene YCL020W
  The level of expressed mRNA in the presence of chemical substance/The level of expressed mRNA in the absence of chemical substance: 1.1
Yeast gene YCL027W
  The level of expressed mRNA in the presence of chemical substance/The level of expressed mRNA in the absence of chemical substance: 1.0
Yeast gene YCR071C
  The level of expressed mRNA in the presence of chemical substance/The level of expressed mRNA in the absence of chemical substance: 0.8
Yeast gene YCR088W
  The level of expressed mRNA in the presence of chemical substance/The level of expressed mRNA in the absence of chemical substance: 0.9
Yeast gene YDL008W
  The level of expressed mRNA in the presence of chemical substance/The level of expressed mRNA in the absence of chemical substance: 1.1
Yeast gene YDL238C
  The level of expressed mRNA in the presence of chemical substance/The level of expressed mRNA in the absence of chemical substance: 1.7
Yeast gene YDR055W
  The level of expressed mRNA in the presence of chemical substance/The level of expressed mRNA in the absence of chemical substance: 2.8
Yeast gene YDR084C
  The level of expressed mRNA in the presence of chemical substance/The level of expressed mRNA in the absence of chemical substance: 1.1
Yeast gene YDR085C
  The level of expressed mRNA in the presence of chemical substance/The level of expressed mRNA in the absence of chemical substance: 3.4
Yeast gene YDR104C
  The level of expressed mRNA in the presence of chemical substance/The level of expressed mRNA in the absence of chemical substance: 1.2
Yeast gene YDR115W
  The level of expressed mRNA in the presence of chemical substance/The level of expressed mRNA in the absence of chemical substance: 1.5
Yeast gene YDR259C
  The level of expressed mRNA in the presence of chemical substance/The level of expressed mRNA in the absence of chemical substance: 1.4
Yeast gene YDR315C
  The level of expressed mRNA in the presence of chemical substance/The level of expressed mRNA in the absence of chemical substance: 1.3
Yeast gene YDR358W
  The level of expressed mRNA in the presence of chemical substance/The level of expressed mRNA in the absence of chemical substance: 1.1
Yeast gene YDR388W
  The level of expressed mRNA in the presence of chemical substance/The level of expressed mRNA in the absence of chemical substance: 1.0
Yeast gene YDR432W
  The level of expressed mRNA in the presence of chemical substance/The level of expressed mRNA in the absence of chemical substance: 1.4
Yeast gene YDR481C
  The level of expressed mRNA in the presence of chemical substance/The level of expressed mRNA in the absence of chemical substance: 0.7
Yeast gene YDR510W
  The level of expressed mRNA in the presence of chemical substance/The level of expressed mRNA in the absence of chemical substance: 1.3
Yeast gene YEL042W
  The level of expressed mRNA in the presence of chemical substance/The level of expressed mRNA in the absence of chemical substance: 0.9
Yeast gene YEL066W
  The level of expressed mRNA in the presence of chemical substance/The level of expressed mRNA in the absence of chemical substance: 2.2
Yeast gene YER039C
  The level of expressed mRNA in the presence of chemical substance/The level of expressed mRNA in the absence of chemical substance: 4.1
Yeast gene YER107C
  The level of expressed mRNA in the presence of chemical substance/The level of expressed mRNA in the absence of chemical substance: 0.6
Yeast gene YER130C
  The level of expressed mRNA in the presence of chemical substance/The level of expressed mRNA in the absence of chemical substance: 0.8
Yeast gene YFL022C
  The level of expressed mRNA in the presence of chemical substance/The level of expressed mRNA in the absence of chemical substance: 0.6
Yeast gene YFL028C
  The level of expressed mRNA in the presence of chemical substance/The level of expressed mRNA in the absence of chemical substance: 1.5
Yeast gene YFL043C
  The level of expressed mRNA in the presence of chemical substance/The level of expressed mRNA in the absence of chemical substance: 1.2
Yeast gene YGL158W
  The level of expressed mRNA in the presence of chemical substance/The level of expressed mRNA in the absence of chemical substance: 12.9
Yeast gene YGL229C
  The level of expressed mRNA in the presence of chemical substance/The level of expressed mRNA in the absence of chemical substance: 0.8
Yeast gene YGR136W
  The level of expressed mRNA in the presence of chemical substance/The level of expressed mRNA in the absence of chemical substance: 0.7
Yeast gene YGR189C
  The level of expressed mRNA in the presence of chemical substance/The level of expressed mRNA in the absence of chemical substance: 3.5
Yeast gene YGR213C
  The level of expressed mRNA in the presence of chemical substance/The level of expressed mRNA in the absence of chemical substance: 6.8
Yeast gene YGR257C
  The level of expressed mRNA in the presence of chemical substance/The level of expressed mRNA in the absence of chemical substance: 1.1
Yeast gene YHR004C
  The level of expressed mRNA in the presence of chemical substance/The level of expressed mRNA in the absence of chemical substance: 1.1
Yeast gene YHR071W
  The level of expressed mRNA in the presence of chemical substance/The level of expressed mRNA in the absence of chemical substance: 1.6
Yeast gene YHR139C
  The level of expressed mRNA in the presence of chemical substance/The level of expressed mRNA in the absence of chemical substance: 9.3
Yeast gene YHR142W
  The level of expressed mRNA in the presence of chemical substance/The level of expressed mRNA in the absence of chemical substance: 0.8
Yeast gene YIL123W
  The level of expressed mRNA in the presence of chemical substance/The level of expressed mRNA in the absence of chemical substance: 1.5
Yeast gene YIL140W
  The level of expressed mRNA in the presence of chemical substance/The level of expressed mRNA in the absence of chemical substance: 1.4
Yeast gene YJL073W
  The level of expressed mRNA in the presence of chemical substance/The level of expressed mRNA in the absence of chemical substance: 0.7
Yeast gene YJL089W
  The level of expressed mRNA in the presence of chemical substance/The level of expressed mRNA in the absence of chemical substance: 0.8
Yeast gene YJL116C
  The level of expressed mRNA in the presence of chemical substance/The level of expressed mRNA in the absence of chemical substance: 1.9
Yeast gene YJR004C
  The level of expressed mRNA in the presence of chemical substance/The level of expressed mRNA in the absence of chemical substance: 0.6
Yeast gene YJR086W
  The level of expressed mRNA in the presence of chemical substance/The level of expressed mRNA in the absence of chemical substance: 1.4
Yeast gene YKL008C
  The level of expressed mRNA in the presence of chemical substance/The level of expressed mRNA in the absence of chemical substance: 0.8
